Experimental data taken from ChEMBL document CHEMBL3400079 (Bioorg Med Chem, 2015).

molecular target: T1, AGAP002992-PA (Anopheles gambiae, UniProt Q5TU56)
T1 sequence (Q5TU56 whole entry): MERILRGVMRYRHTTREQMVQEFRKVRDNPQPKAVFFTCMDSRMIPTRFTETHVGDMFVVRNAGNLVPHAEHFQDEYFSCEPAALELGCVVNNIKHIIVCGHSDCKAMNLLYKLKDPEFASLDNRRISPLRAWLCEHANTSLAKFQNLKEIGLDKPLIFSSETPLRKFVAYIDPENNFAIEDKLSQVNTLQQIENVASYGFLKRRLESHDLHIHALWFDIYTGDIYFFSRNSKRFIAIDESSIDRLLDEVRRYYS
Description: Inhibition of Anopheles gambiae carbonic anhydrase pre-incubated for 15 mins by stopped-flow CO2 hydration assay

SMILES	Ki [nM]
Nc1ccc(S(=O)(=O)Nc2ccc(S(N)(=O)=O)cc2)cc1	83.4
NS(=O)(=O)c1nnc(NS(=O)(=O)c2ccccc2)s1 [BENZOLAMIDE]	9.8
NCCc1ccc(S(N)(=O)=O)cc1	835
NS(=O)(=O)c1cccc(S(N)(=O)=O)c1	843
NS(=O)(=O)c1ccc(S(=O)(=O)Nc2cccc3c(Cl)c[nH]c23)cc1	226
Nc1cccc(S(N)(=O)=O)c1	887
Nc1nccc(Nc2ccc(S(N)(=O)=O)cc2)n1	10600
Nc1ccc(S(N)(=O)=O)cc1Cl	12400
Nc1ccc(S(N)(=O)=O)cc1F	902
NS(=O)(=O)c1cc(Cl)cc(Cl)c1O	6480
Nc1cc(Cl)c(S(N)(=O)=O)cc1S(N)(=O)=O	756
Nc1nnc(S(N)(=O)=O)s1	737
CCN[C@H]1CN(CCCOC)S(=O)(=O)c2sc(S(N)(=O)=O)cc21 [BRINZOLAMIDE]	31.4
Nc1ccc(S(=O)(=O)NCc2ccc(S(N)(=O)=O)cc2)cc1	81.9
Nc1ccc(S(=O)(=O)Nc2nnc(S(N)(=O)=O)s2)cc1	6.8
NS(=O)(=O)c1ccc(O)cc1	> 100000
Cn1nc(S(N)(=O)=O)sc1=N	1680
O=C1NS(=O)(=O)c2ccccc21 [SACCHARIN]	95.3
Nc1cc(C(F)(F)F)c(S(N)(=O)=O)cc1S(N)(=O)=O [2,4-DISULFAMYLTRIFLUOROMETHYLANILINE]	4360
Nc1ccc(S(N)(=O)=O)cc1 [SULFANILAMIDE]	862
CCOc1ccc2nc(S(N)(=O)=O)sc2c1 [ETHOXZOLAMIDE]	185
Nc1ccc(S(=O)(=O)NCCc2ccc(S(N)(=O)=O)cc2)cc1	47
NS(=O)(=O)c1ccc(CCO)cc1	> 100000
CC1(C)O[C@@H]2[C@@H](CO[C@@]3(COS(N)(=O)=O)OC(C)(C)O[C@@H]23)O1 [TOPIRAMATE]	> 100000
Cc1ccc(-c2cc(C(F)(F)F)nn2-c2ccc(S(N)(=O)=O)cc2)cc1 [CELECOXIB]	173
Cc1ccc(S(N)(=O)=O)cc1 [P-TOLUENESULFONAMIDE]	12400
Nc1ccc(S(N)(=O)=O)cc1Br	855
NS(=O)(=O)c1ccc(CCNS(=O)(=O)c2ccc([N+](=O)[O-])cc2CO)cc1	6.1
NS(=O)(=O)c1ccc(CO)cc1	> 100000
NCc1ccc(S(N)(=O)=O)cc1 [MAFENIDE]	13600
